Patent US11272709B2, “Amidine substituted benzoyl derivatives useful as herbicides” (Syngenta Participations AG, priority 2018, dated 2022)

Tests used:
Assay type in all cases: in vivo
Settings in all cases: 500 g/h, evaluated after 13 days
[1] = test system: Amaranthus retoflexus (AMARE); assay: Pre-emergence herbicidal glasshouse test, Amaranthus retoflexus (AMARE)
Procedure: (§1) Seeds of a variety of test species are sown in standard soil in pots (Lolium perenne (LOLPE), Amaranthus retoflexus (AMARE), Abutilon theophrasti (ABUTH), Setaria faberi (SETFA), Echinochloa crus-galli (ECHCG), Ipomoea hederacea (IPOHE)). After cultivation for one day (pre-emergence) or after 8 days cultivation (post-emergence) under controlled conditions in a glasshouse (at 24/16° C., day/night; 14 hours light; 65% humidity), the plants are sprayed with an aqueous spray solution derived from the formulation of the technical active ingredient in acetone/water (50:50) solution containing 0.5% Tween 20 (polyoxyethelyene sorbitan monolaurate, CAS RN 9005-64-5). Compounds are applied at 500 g/h unless otherwise indicated. The test plants are then grown in a glasshouse under controlled conditions in a glasshouse (at 24/16° C., day/night; 14 hours light; 65% humidity) and watered twice daily. After 13 days for pre and post-emergence, the test is evaluated for the percentage damage caused to the plant. The biological activities are shown in the following table on a five point scale (5=80-100%; 4=60-79%; 3=40-59%; 2=20-39%; 1=0-19%).

[2] = test system: Abutilon theophrasti (ABUTH); assay: Pre-emergence herbicidal glasshouse test, Abutilon theophrasti (ABUTH)
Procedure: as §1

[3] = test system: Setaria faberi (SETFA); assay: Pre-emergence herbicidal glasshouse test, Setaria faberi (SETFA)
Procedure: as §1

[4] = test system: Echinochloa crus-galli (ECHCG); assay: Pre-emergence herbicidal glasshouse test, Echinochloa crus-galli (ECHCG)
Procedure: as §1

[5] = test system: Ipomoea hederacea (IPOHE); assay: Pre-emergence herbicidal glasshouse test, Ipomoea hederacea (IPOHE)
Procedure: as §1

[6] = test system: Amaranthus retoflexus (AMARE); assay: Post-emergence herbicidal glasshouse test, Amaranthus retoflexus (AMARE)
Procedure: as §1

[7] = test system: Abutilon theophrasti (ABUTH); assay: Post-emergence herbicidal glasshouse test, Abutilon theophrasti (ABUTH)
Procedure: as §1

[8] = test system: Setaria faberi (SETFA); assay: Post-emergence herbicidal glasshouse test, Setaria faberi (SETFA)
Procedure: as §1

[9] = test system: Echinochloa crus-galli (ECHCG); assay: Post-emergence herbicidal glasshouse test, Echinochloa crus-galli (ECHCG)
Procedure: as §1

[10] = test system: Ipomoea hederacea (IPOHE); assay: Post-emergence herbicidal glasshouse test, Ipomoea hederacea (IPOHE)
Procedure: as §1

Compound | PRE Application AMARE, percentage damage (five point scale) [1] | PRE Application ABUTH, percentage damage (five point scale) [2] | PRE Application SETFA, percentage damage (five point scale) [3] | PRE Application ECHCG, percentage damage (five point scale) [4] | PRE Application IPOHE, percentage damage (five point scale) [5] | POST Application AMARE, percentage damage (five point scale) [6] | POST Application ABUTH, percentage damage (five point scale) [7] | POST Application SETFA, percentage damage (five point scale) [8] | POST Application ECHCG, percentage damage (five point scale) [9] | POST Application IPOHE, percentage damage (five point scale) [10]
CC(=Nc1c(C(F)(F)F)ccc(C(=O)Nc2nnnn2C)c1Cl)N(C)C [Compound 1.148] | 5 (5=80-100%) | 5 (5=80-100%) | 5 (5=80-100%) | 5 (5=80-100%) | 5 (5=80-100%) | 5 (5=80-100%) | 4 (4=60-79%) | 5 (5=80-100%) | 5 (5=80-100%) | 4 (4=60-79%)
CN(C)C=Nc1c(C(F)(F)F)ccc(C(=O)C2=C(O)CCCC2=O)c1Cl [Compound 3.049] | 5 (5=80-100%) | 5 (5=80-100%) | 5 (5=80-100%) | 5 (5=80-100%) | 5 (5=80-100%) | 5 (5=80-100%) | 5 (5=80-100%) | 5 (5=80-100%) | 5 (5=80-100%) | 5 (5=80-100%)
COCCn1nnnc1NC(=O)c1ccc(S(C)(=O)=O)c(N=CN(C)C)c1C [Compound 7.003] | 5 (5=80-100%) | 5 (5=80-100%) | 5 (5=80-100%) | 5 (5=80-100%) | 5 (5=80-100%) | 5 (5=80-100%) | 5 (5=80-100%) | 5 (5=80-100%) | 5 (5=80-100%) | 5 (5=80-100%)
CC(=NOCc1c(S(C)(=O)=O)ccc(C(=O)Nc2nnc(C)o2)c1Cl)N(C)C [Compound 2.129] | 5 (5=80-100%) | 5 (5=80-100%) | 3 (3=40-59%) | 3 (3=40-59%) | 2 (2=20-39%) | 5 (5=80-100%) | 5 (5=80-100%) | 5 (5=80-100%) | 5 (5=80-100%) | 5 (5=80-100%)
Cc1c(C(=O)C2=C(O)CCCC2=O)ccc(C(F)(F)F)c1N=CN(C)C [Compound 3.017] | 5 (5=80-100%) | 5 (5=80-100%) | 4 (4=60-79%) | 5 (5=80-100%) | 5 (5=80-100%) | 3 (3=40-59%) | 5 (5=80-100%) | 5 (5=80-100%) | 5 (5=80-100%) | 5 (5=80-100%)
Cc1nnc(NC(=O)c2ccc(C(F)(F)F)c(N=CN(C)c3ccccc3)c2Cl)o1 [Compound 2.131] | 5 (5=80-100%) | 3 (3=40-59%) | 5 (5=80-100%) | 5 (5=80-100%) | 2 (2=20-39%) | 5 (5=80-100%) | 4 (4=60-79%) | 5 (5=80-100%) | 5 (5=80-100%) | 3 (3=40-59%)
